From PMC3375280 (PLoS ONE, 2012)
Changes are numbered by the printed parent chain.

Experiments:
[1] = target: T1, AT1 C76A/N111C/C289A mutant receptor (Rattus norvegicus, UniProt P25095, C289A/C76A/N111C); experiment: competition binding, C76A/N111C/C289A mutant; details: for Kd ratio relative to WT (in parentheses): C76A/N111C/C289A / WT; for Kd: C76A/N111C/C289A, COS1 membranes, read-out: Binding affinity (Kd)
T1 construct: expressed in transfected cells; host or cells: COS1
T1 sequence (P25095 1-359 C76A/N111C/C289A): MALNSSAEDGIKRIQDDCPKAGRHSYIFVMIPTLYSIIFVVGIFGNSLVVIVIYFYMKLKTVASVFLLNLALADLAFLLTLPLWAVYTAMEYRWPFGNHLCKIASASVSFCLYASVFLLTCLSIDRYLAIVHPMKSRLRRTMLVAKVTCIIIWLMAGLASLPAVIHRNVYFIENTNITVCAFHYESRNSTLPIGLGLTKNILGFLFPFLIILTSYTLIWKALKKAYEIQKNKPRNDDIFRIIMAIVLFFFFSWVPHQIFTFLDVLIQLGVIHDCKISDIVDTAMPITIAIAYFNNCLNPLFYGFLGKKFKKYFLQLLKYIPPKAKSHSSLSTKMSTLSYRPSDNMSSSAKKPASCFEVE
Description: (§1) The Kd and Bmax values of receptor binding were determined by ^125I-[Sar^1, Ile^8] […] Membranes expressing the WT or mutant AT1 receptors were incubated with 100 pM ^125I-[Sar^1, Ile^8] […] The binding reaction was terminated by filtering the incubation mixture through Whatman GF/C glass filters, and the residues were extensively washed further with binding buffer. The bound ligand fraction was determined from the counts per minute (cpm) remaining on the membrane. Binding kinetics values were determined as previously described.

[2] = target: T2, AT1 V108A mutant receptor (Rattus norvegicus, UniProt P25095, V108A); experiment: competition binding, V108A mutant; details: for Kd ratio relative to WT (in parentheses): V108A / WT; for Kd: V108A, COS1 membranes, read-out: Binding affinity (Kd)
T2 construct: expressed in transfected cells; host or cells: COS1
T2 sequence (P25095 1-359 V108A): T1 sequence (P25095 1-359 C76A/N111C/C289A) with A76C, V108A, C111N, A289C
Description: as §1

[3] = target: T3, AT1 C76A/L112C/C289A mutant receptor (Rattus norvegicus, UniProt P25095, C289A/C76A/L112C); experiment: substituted cysteine accessibility mapping (SCAM), C76A/L112C/C289A; type: binding; parameters: key to Cysteine accessibility at Leu112 compared to ligand (-): Less and More indicate that the AT1 receptor is less or more accessible to the ligand pocket, respectively; Less and More indicate that the AT1 receptor is less or more accessible to the ligand pocket, respectively; No change; details: for % inhibition of 125I-[Sar1,Ile8]Ang II binding by MTSEA+ after ligand pre-incubation: C76A/L112C/C289A mutant, 1 µM ligand, comparison in words; for Cysteine accessibility at Leu112 compared to ligand (-): SCAM, 1 µM ARB, […] MTSEA+, COS1 membranes
T3 construct: expressed in transfected cells; host or cells: COS1
T3 sequence (P25095 1-359 C76A/L112C/C289A): T1 sequence (P25095 1-359 C76A/N111C/C289A) with C111N, L112C
Text: As we reported previously, the percentage (%) inhibition of ^125I-[Sar^1, Ile^8] AngII binding by methanethiosulphonate ethyl-ammonium (MTSEA^+) reagent was approximately 30% on AT1 receptor, since Cys^76 in TM2 was accessible to water within the ligand pocket. In addition, mechanical stretching increased the accessibility of Cys^289 by inducing a change in the conformation of TM7 [22]. To differentiate between single and multiple movements of one or more native cysteines, we created TM3 residues that were substituted with cysteine one at a time from […] to Phe^117 using the C76A/C289A mutant genetic background and evaluated each triple mutant for MTSEA sensitivity.
Figure 3 Changes in cysteine accessibility in COS1 cells expressing C76A/C289A mutant receptors in which the transmenbrane 3 residues from Ala^106 to Phe^117, except for position 113, were successively replaced by cysteine. 1 µM of ARBs, n=4–9, *p<0.05 vs. no treatment. #p<0.05 vs. C76A/C289A.
The SCAM method has been used to probe relative changes in the conformation of constitutively active AT1 receptor [20]–[22] and other GPCRs, [30] by validating the presence of Cys residues within the ligand pocket. We used a highly reactive, sulfhydryl-specific reaction with methanethiosulfonyl ethyl-ammonium (MTSEA^+), which reacts a billion times faster with water-exposed and ionized Cys than with lipid-exposed and un-ionized Cys. In this reaction, a positively charged sulfonylmethylammonium group is added to a water-exposed Cys. Aliquots of cell membranes are incubated with or without ARBs for 20 min in phosphate buffer at room temperature. The membranes are then diluted with same buffer and centrifuged. After washout the cell membranes, the membranes are incubated with 2.5 mM MTSEA^+ at room temperature for 2 min in HEPES buffer (pH7.4). The Membranes are then diluted with same buffer to stop the reaction and centrifuged. One hundred µl aliquots were used to assay for ^125I-[Sar^1,Ile^8]Ang II binding. The fractional inhibition is calculates 1 − [(specific binding after MTX reagent) / (specific binding without reagent)].

[4] = target: T4, AT1 S105A mutant receptor (Rattus norvegicus, UniProt P25095, S105A); experiment: competition binding, S105A mutant; details: for Kd: S105A (S105 in the source), COS1 membranes, read-out: Binding affinity (Kd); for Kd ratio relative to WT (in parentheses): S105A / WT
T4 construct: expressed in transfected cells; host or cells: COS1
T4 sequence (P25095 1-359 S105A): T1 sequence (P25095 1-359 C76A/N111C/C289A) with A76C, S105A, C111N, A289C
Description: as §1

Kd ratio relative to WT (in parentheses) [1] | Kd [1] | Kd ratio relative to WT (in parentheses) [2] | Kd [2] | Cysteine accessibility at Leu112 compared to ligand (-) [3] | Cysteine accessibility at Leu112 compared to ligand (-) ([3]; listed as olmesartan) | Kd [4] | Kd ratio relative to WT (in parentheses) [4] | SMILES | % inhibition of 125I-[Sar1,Ile8]Ang II binding by MTSEA+ after ligand pre-incubation [3]
5.2 fold | 12 ± 4 nM | 2.1 fold | 4.8 ± 2 nM | Less | less accessibility | 6.7 ± 3.8 nM |  | CCCc1nc(C(C)(C)O)c(C(=O)O)n1Cc1ccc(-c2ccccc2-c2nnn[nH]2)cc1 [Olmesartan, olmesartan, reference compound] | significantly lower than that with ligand (-)
6.8 fold | 5.4 ± 3 nM | 2.0 fold | 1.6 ± 0.8 nM |  |  | 3.2 ± 2 nM | 4.0 fold | CCCc1nc(C(C)(C)O)c(C(N)=O)n1Cc1ccc(-c2ccccc2-c2nnn[nH]2)cc1 [R239470] | significantly lower than that with ligand (-)
3.8 fold | 180 ± 94 nM | 51 fold | 2450 ± 1310 nM |  |  | 37 ± 23 nM | 0.8 fold | CCCc1nc(C(C)(C)O)c(C(N)=O)n1Cc1ccc(-c2cc(Cc3ccc(O)cc3)ccc2-c2nnn[nH]2)cc1 [R794847] | significantly lower than those with olmesartan and R239470
